Assay: In vivo and ex vivo fluorescence imaging
Parameters: species or system Male BALB/c mice
Conditions: mice, i.v.
Experimental: Male BALB/c mice (22–25 g) were bred and maintained in normal watering and feeding conditions in a Laboratory Animal Husbandry Facility, equipped with IVC (individually ventilated cages), controlled atmosphere-temperature, humidity and lighting (Vasile Goldis Western University, Arad, Romania). All experimental procedures were performed in compliance with the appropriate laws and institutional guidelines, and were approved by the Institutional Ethics Committee of Vasile Goldiș Western University of Arad (Arad, Romania). FITC-HPBCD (0.5 and 2.5 mg), dissolved in 0.1 mL saline solution was injected into the femoral vein of mice under general anaesthesia. Maintaining the surgical plane of anesthesia, mice were placed into an in vivo imaging system (In-vivo Xtreme, Carestream, Carestream Health Inc. USA). At 5, 15, 30, 45 and 60 min, fluorescence and X-ray images were recorded of the animals. After 30 or 60 min, the blood vessels of some animals were perfused by warm saline solution and their organs (livers, lungs, kidneys, spleens and brains) were removed for ex vivo imaging (excitation: 480 nm, emission: 535 nm).

6-deoxy-6-[(5/6)-fluoresceinylthioureido]-(2-hydroxypropyl)-β-cyclodextrin [FITC-HPBCD]
ex vivo fluorescence of lungs vs untreated control, separated imaging (0.5 mg): higher ex vivo fluorescence
in vivo whole-body fluorescence distribution (0.5 mg and 2.5 mg/animal, images at 5-60 min): distributed over the entire body of the animals
ex vivo fluorescence of kidneys (0.5 mg, after 30 min): relative higher fluorescence
ex vivo fluorescence of kidneys (2.5 mg/animal): especially high fluorescence
ex vivo fluorescence of lung (2.5 mg/animal): elevated intensity
ex vivo fluorescence of organs vs control (2.5 mg/animal, every organ (livers, lungs, kidneys, spleens, brains)): higher fluorescence intensities
in vivo fluorescence of the bladder (30 and 45 min, urinated out at 60 min): accumulated in the bladder
ex vivo fluorescence of brains vs untreated (after 60 min): no difference
ex vivo fluorescence of brains vs untreated (both doses (0.5 and 2.5 mg), after 30 min, separated examination): higher fluorescence than the untreated ones

From article PMC6843445, “Pharmacokinetic Properties of Fluorescently Labelled Hydroxypropyl-Beta-Cyclodextrin” (Biomolecules, 2019)
